Experimental data reported in patent US20200253929A1, “TREATMENT OF EPILEPSY” (priority 2017, published 2020).

What was measured:
[1] = test system: PTZ-induced seizures in zebrafish larvae; test: Zebrafish PTZ seizure model, behavioral analysis; assay type: in vivo, Danio rerio; conditions: lower concentrations (MTC/2, MTC/4), 2 hours incubation
[2] = Metabolic stability assay (hepatic clearance); assay type: in vitro ADME; conditions: human liver microsomes; for Hepatic clearance / Hepatic clearance t1/2 (half-life): 1 μM
Procedure: The assay was performed with a mixture of test compounds (1 μM), NADPH (4 mM) and Human Liver Microsomes (HLM) (1 mg/mL) incubated at 37° C. Reactions were quenched at 0, 15, 30, 45, 60, and 90 min, using an equal volume of acetonitrile and then diluted 1:1 with water prior to analysis by LC-MS/MS. The analysis was performed using an Agilent Series 1290 LC system (Agilent Technologies, Santa Clara, Calif., USA) using a Supelco Discovery HS C18 (2.1×50 mm) 3 µm column that was held at 30° C. Solvent A contained water with 0.1% formic acid and solvent B contained acetonitrile with 0.1% formic acid, and the flow rate was set at 400 μL/min. The gradient elution was performed as follows: 0-0.5 min 0% eluent B; 0.5-7 min 100% eluent B; 7-9 min 100% eluent B; 9-9.2 min 0% eluent B; and 9.2-10.5 min 0% eluent B. An API 4000 mass spectrometer in positive ESI mode (AB SCIEX, Concord, ON, Canada) was used with a generic method for data acquisition on all compounds. Data processing was performed using MultiQuant Software (AB SCIEX, Concord, ON, Canada) to process the data. Peak areas were used to plot the Ln % remaining relative to time (t)=0. The slope of the natural log of the percent remaining versus time was calculated to determine the first-order rate constant (k) and the half-life (t1/2) of the test compounds according to the following equation: t1/2=0.693/k (min)

CYP2D6 = target: T1, CYP2D6 (Homo sapiens, UniProt P10635); test: CYP450 enzyme inhibition assay, CYP2D6; assay type: in vitro ADME; conditions: human liver microsomes; for IC50: dextromethorphan probe
T1 construct: containing Human Liver Microsomes (HLM) (0.5 mg/mL); from tissue; host or cells: human liver microsomes
T1 sequence (P10635 whole entry): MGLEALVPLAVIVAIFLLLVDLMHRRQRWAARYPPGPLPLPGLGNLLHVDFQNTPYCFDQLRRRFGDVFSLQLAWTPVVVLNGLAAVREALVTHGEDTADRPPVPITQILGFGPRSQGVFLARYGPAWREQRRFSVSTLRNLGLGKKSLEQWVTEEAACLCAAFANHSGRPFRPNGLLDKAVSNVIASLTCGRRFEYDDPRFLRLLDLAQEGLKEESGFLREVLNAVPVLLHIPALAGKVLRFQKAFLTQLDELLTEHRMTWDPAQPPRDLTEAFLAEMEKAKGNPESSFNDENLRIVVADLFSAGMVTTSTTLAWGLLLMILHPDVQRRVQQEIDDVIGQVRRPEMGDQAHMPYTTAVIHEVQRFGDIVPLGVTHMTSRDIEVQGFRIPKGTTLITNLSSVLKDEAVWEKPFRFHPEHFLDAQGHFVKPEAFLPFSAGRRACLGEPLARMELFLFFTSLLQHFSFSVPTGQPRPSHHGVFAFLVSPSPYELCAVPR
Procedure: Protocol was based on literature [Perez-Del Palacio et al. (2017) Front Pharmacol 8, 202]. Assessment of CYP450 inhibition was conducted in 96-well plate format at 37° C. Test compounds were dissolved in DMSO/acetonitrile (2 μL) and diluted in 98 μL NADPH solution (2 mM). Reactions were started by addition of 100 μL potassium phosphate buffer (200 mM, pH 7.4) containing Human Liver Microsomes (HLM) (0.5 mg/mL). Probe reactions for CYP3A4, CYP2D6 and CYP2C9 were conducted with 50 μM testosterone, 22 μM dextromethorphan and 10 μM diclofenac for 15 min. Reactions were terminated with the addition of a quench solution (90 μL) of acetonitrile containing internal standards for LC-MS/MS determination (60 ppb cortisone, 100 ppb 4′-hydroxydiclofenac 13C6, 60 ppb levallorphan).

| SMILES | PTZ-induced seizure behavior, concentration-response retest [1] | Hepatic clearance, rating [2] | Hepatic clearance [2] [μL/ μL/min/mg protein] | Hepatic clearance t1/2 (half-life) [2] [min] | Hepatic clearance t1/2 (half-life) ([2]; listed as Azaspirofuran A) [min] | CYP2D6, effect (CYP2D6) | IC50 (CYP2D6) [µM] | Hepatic clearance t1/2 (half-life) ([2]; listed as Pseurotin A2) [min] |
| --- | --- | --- | --- | --- | --- | --- | --- | --- |
| CCc1ccc(C2=C(C)C(=O)C3(O2)C(=O)NC(OC)(C(=O)c2ccccc2)C3O)o1 (stereo not shown) [azaspirofuran A] | No antiseizure activity | Medium | 20.17 | 33 | 33.12 | Weak | 23.4 |  |
| CC/C=C\[C@H](O)[C@H](O)C1=C(C)C(=O)[C@]2(O1)C(=O)N[C@](OC)(C(=O)c1ccccc1)[C@H]2O [pseurotin A2] |  | Low | <8.6 | > 60 |  | No effect | > 88 | > 60 |
